In patent publication US8394825B2, “Compound” (Sterix Limited, priority 2007, dated 2013):

How the values were obtained:
[1] = system: DU145 cells; assay: Antiproliferative assay in DU145 cells, WST-1 cell proliferation assay, 96 hours (GI50); assay type: cell-based; conditions: Homo sapiens, DU-145, 96 hours post-treatment, triplicate
Procedure: Antiproliferative assays. DU145 cells were seeded into 96 well microtiter plates (5000 cells/well) and treated with […] of compounds or with vehicle control. At 96 hours post-treatment, live cell counts were determined by WST-1 cell proliferation assay (Roche, Penzberg, Germany), as per manufacturer's instructions. Viability results were expressed as a percentage of mean control values resulting in the calculation of the 50% growth inhibition (GI50). All experiments were performed in triplicate.

GI50 [1] [µM]	melting point [°C]	SMILES
10 to 50	85 to 86	COc1ccccc1CN1CCc2cc(OCc3ccccc3)c(OC)cc2C1 [compound 5, 6-Benzyloxy-7-methoxy-2-(2-methoxybenzyl)-1,2,3,4-tetrahydroisoquinoline]
> 100	95 to 96	COc1cc(CN2CCc3cc(OCc4ccccc4)c(OC)cc3C2)cc(OC)c1 [compound 6, 6-Benzyloxy-2-(3,5-dimethoxybenzyl)-7-methoxy-1,2,3,4-tetrahydroisoquinoline]
> 100	81 to 82	COc1cc2c(cc1OCc1ccccc1)CCN(Cc1cccc(C)c1)C2 [compound 7, 6-Benzyloxy-7-methoxy-2-(3-methylbenzyl)-1,2,3,4-tetrahydroisoquinoline]
> 100	111 to 112	COc1cc2c(cc1OCc1ccccc1)CCN(Cc1cccc(Oc3ccccc3)c1)C2 [compound 8, 6-Benzyloxy-7-methoxy-2-(3-phenoxybenzyl)-1,2,3,4-tetrahydroisoquinoline]
10 to 50	110 to 111	COc1cc(OC)c(OC)cc1CN1CCc2cc(OCc3ccccc3)c(OC)cc2C1 [compound 17, 6-Benzyloxy-7-methoxy-2-(2,4,5-trimethoxybenzyl)-1,2,3,4-tetrahydroisoquinoline]
10 to 50	144 to 145	COc1cc2c(cc1OCc1ccccc1)CCN(Cc1cc(OC)c(OC)c(OC)c1)C2 [compound 19, 6-Benzyloxy-7-methoxy-2-(3,4,5-trimethoxybenzyl)-1,2,3,4-tetrahydroisoquinoline]
10 to 50	106 to 107	COc1cc2c(cc1OCc1ccccc1)CCN(Cc1cccc(OC)c1OC)C2 [compound 20, 6-Benzyloxy-7-methoxy-2-(2,3-dimethoxybenzyl)-1,2,3,4-tetrahydroisoquinoline]
> 100	77 to 79.5	COc1cc2c(cc1OCc1ccccc1)CCN(Cc1cccc(F)c1)C2 [compound 22, 6-Benzyloxy-2-(3-fluorobenzyl)-7-methoxy-1,2,3,4-tetrahydroisoquinoline]
> 100	114 to 115	COc1cc2c(cc1OCc1ccccc1)CCN(Cc1cccc(N)c1)C2 [compound 34, 2-(3-Aminobenzyl)-6-(benzyloxy)-7-methoxy-1,2,3,4-tetrahydroisoquinoline]
> 100	134 to 135	COc1cc2c(cc1O)CCN(Cc1ccccc1)C2 [compound 38, 2-Benzyl-6-hydroxy-7-methoxy-1,2,3,4-tetrahydroisoquinoline]
> 100	162 to 163	COc1ccc(CN2CCc3cc(O)c(OC)cc3C2)cc1 [compound 39, 6-Hydroxy-7-methoxy-2-(4-methoxybenzyl)-1,2,3,4-tetrahydroisoquinoline]
> 100	161 to 162	COc1cccc(CN2CCc3cc(O)c(OC)cc3C2)c1 [compound 40, 6-Hydroxy-7-methoxy-2-(3-methoxybenzyl)-1,2,3,4-tetrahydroisoquinoline]
> 100	128 to 129	COc1cc2c(cc1O)CCN(Cc1ccccc1OC)C2 [compound 41, 6-Hydroxy-7-methoxy-2-(2-methoxybenzyl)-1,2,3,4-tetrahydroisoquinoline]
50 to 100	127 to 128	COc1cc(CN2CCc3cc(O)c(OC)cc3C2)cc(OC)c1 [compound 42, 6-Hydroxy-2-(3,5-dimethoxybenzyl)-7-methoxy-1,2,3,4-tetrahydroisoquinoline]
10 to 50	139 to 140	COc1cc2c(cc1O)CCN(Cc1cccc(Oc3ccccc3)c1)C2 [compound 43, 6-Hydroxy-7-methoxy-2-(3-phenoxybenzyl)-1,2,3,4-tetrahydroisoquinoline]
< 10	170 to 171	COc1cc2c(cc1O)CCN(Cc1cc(OC)c(OC)c(OC)c1)C2 [compound 54, 6-Hydroxy-7-methoxy-2-(3,4,5-trimethoxybenzyl)-1,2,3,4-tetrahydroisoquinoline]
50 to 100	104 to 105	COc1ccc(OC)c(CN2CCc3cc(O)c(OC)cc3C2)c1 [compound 55, 6-Hydroxy-7-methoxy-2-(2,5-dimethoxybenzyl)-1,2,3,4-tetrahydroisoquinoline]
> 100	101 to 102	COc1cc2c(cc1O)CCN(Cc1cccc(OC)c1OC)C2 [compound 56, 6-Hydroxy-7-methoxy-2-(2,3-dimethoxybenzyl)-1,2,3,4-tetrahydroisoquinoline]
> 100	146 to 147	COc1cc2c(cc1O)CCN(Cc1ccc(OC)c(OC)c1)C2 [compound 57, 6-Hydroxy-7-methoxy-2-(3,4-dimethoxybenzyl)-1,2,3,4-tetrahydroisoquinoline]

GI50 [1] [µM]	melting point [°C]	SMILES
> 100	65 to 66	COc1cc2c(cc1O)CCN(Cc1ccc(OC)c(OC)c1OC)C2 [compound 58, 6-Hydroxy-7-methoxy-2-(2,3,4-trimethoxybenzyl)-1,2,3,4-tetrahydroisoquinoline]
< 10	152 to 153	COc1cc2c(cc1O)CCN(Cc1cc(OC)c(OC)cc1OC)C2 [compound 59, 6-Hydroxy-7-methoxy-2-(2,4,5-trimethoxybenzyl)-1,2,3,4-tetrahydroisoquinoline]
> 100	125 to 127	COc1cc2c(cc1O)CCN(Cc1cccc(F)c1)C2 [compound 60, 2-(3-Fluorobenzyl)-6-hydroxy-7-methoxy-1,2,3,4-tetrahydroisoquinoline]
> 100	143 to 146	COc1cc2c(cc1O)CCN(Cc1cccc(OC(C)C)c1)C2 [compound 61, 2-(3-Isopropoxybenzyl)-6-hydroxy-7-methoxy-1,2,3,4-tetrahydroisoquinoline]
> 100	105 to 106	CCOc1cccc(CN2CCc3cc(O)c(OC)cc3C2)c1 [compound 63, 2-(3-Ethoxybenzyl)-6-hydroxy-7-methoxy-1,2,3,4-tetrahydroisoquinoline]
> 100	113 to 155	COc1cc2c(cc1O)CCN(Cc1cccc(C#N)c1)C2 [compound 64, 2-(3-Cyanobenzyl)-6-hydroxy-7-methoxy-1,2,3,4-tetrahydroisoquinoline]
> 100	165 to 166.5	COc1cc2c(cc1O)CCN(Cc1ccc(C#N)cc1)C2 [compound 65, 2-(4-Cyanobenzyl)-6-hydroxy-7-methoxy-1,2,3,4-tetrahydroisoquinoline]
> 100	127 to 128	COc1cc2c(cc1O)CCN(Cc1cccc([N+](=O)[O-])c1)C2 [compound 66, 6-Hydroxy-7-methoxy-2-(3-nitrobenzyl)-1,2,3,4-tetrahydroisoquinoline]
50 to 100	118 to 119.5	COc1cc2c(cc1O)CCN(Cc1cccc(Cl)c1)C2 [compound 67, 2-(3-Chlorobenzyl)-6-hydroxy-7-methoxy-1,2,3,4-tetrahydroisoquinoline]
50 to 100	122 to 124	COc1cc2c(cc1O)CCN(Cc1cccc(OC(F)(F)F)c1)C2 [compound 68, 6-Hydroxy-7-methoxy-2-(3-trifluoromethoxybenzyl)-1,2,3,4-tetrahydroisoquinoline]
> 100	151.9 to 152.6	COc1cc2c(cc1O)CCN(Cc1ccccc1O)C2 [compound 69, 2-(2-Hydroxybenzyl)-6-hydroxy-7-methoxy-1,2,3,4-tetrahydroisoquinoline]
> 100	177 to 178	COc1cc2c(cc1O)CCN(Cc1cccc(O)c1)C2 [compound 70, 2-(3-Hydroxybenzyl)-7-methoxy-1,2,3,4-tetrahydroisoquinolin-6-ol]
10 to 50	126 to 127	COc1ccc(C(=O)N2CCc3cc(OCc4ccccc4)c(OC)cc3C2)cc1 [compound 108, 7-Methoxy-2-(4-methoxybenzoyl)-6-benzyloxy-1,2,3,4-tetrahydroisoquinoline]
10 to 50	130 to 131	COc1cc(OC)cc(C(=O)N2CCc3cc(OCc4ccccc4)c(OC)cc3C2)c1 [compound 110, 6-Benzyloxy-2-(3,5-dimethoxybenzoyl)-7-methoxy-1,2,3,4-tetrahydroisoquinoline]
50 to 100	176 to 177	COc1cc2c(cc1O)CCN(C(=O)c1ccccc1OC)C2 [compound 115, 6-Hydroxy-7-methoxy-2-(2-methoxybenzoyl)-1,2,3,4-tetrahydroisoquinoline]
10 to 50	141 to 142	COc1cccc(C(=O)N2CCc3cc(O)c(OC)cc3C2)c1 [compound 116, 6-Hydroxy-7-methoxy-2-(3-methoxybenzoyl)-1,2,3,4-tetrahydroisoquinoline]
> 100	173 to 174	COc1ccc(C(=O)N2CCc3cc(O)c(OC)cc3C2)cc1 [compound 117, 6-Hydroxy-7-methoxy-2-(4-methoxybenzoyl)-1,2,3,4-tetrahydroisoquinoline]
> 100	132 to 133	COc1cc2c(cc1O)CCN(C(=O)c1ccc(OC)c(OC)c1)C2 [compound 118, 2-(3,4-Dimethoxybenzoyl)-6-hydroxy-7-methoxy-1,2,3,4-tetrahydroisoquinoline]
< 10	172 to 173	COc1cc2c(cc1O)CCN(C(=O)c1cc(OC)c(OC)c(OC)c1)C2 [compound 120, 6-Hydroxy-7-methoxy-2-(3,4,5-trimethoxybenzoyl)-1,2,3,4-tetrahydroisoquinoline]
